Source: US10399965B2 (INNOVATIVE PHARMACOLOGY RESEARCH OOO (IPHAR), priority 2016, dated 2019)

What was measured:
[1] = Acute toxicity in mice, single oral administration; conditions: CD-1, mouse, in vivo, oral; per os, male mice, single dose
Protocol: (§1) Assessment of acute toxicity of the disclosed compound was performed using outbred male CD-1 mice with SPF status. The test compound was administered in 62.5 mg/kg, 125 mg/kg, 250 mg/kg, 500 mg/kg, 1000 mg/kg, 2000 mg/kg and 5000 mg/kg doses (5 animals per group) in 0.5 ml volume once orally as a suspension in 0.5% aqueous solution of carboxymethyl cellulose.

outbred male CD-1 mice = assay: Acute toxicity in mice, single oral administration; conditions: male, CD-1, mouse, in vivo
Protocol: as §1

[2] = biological target: T1, Recombinant human tyrosyl-DNA-phosphodiesterase 1 (Tdp1) (Homo sapiens, UniProt Q9NUW8); assay: Tdp1 inhibition, removal of BHQ1 quencher from 3'-end of FAM-labelled oligonucleotide (fluorescence); assay type: biochemical; conditions: 1.3 nM Tdp1, 50 nM oligonucleotide, pH 8.0; read-out: IC50 (concentration of an inhibitor that reduces an enzyme's activity by half) towards Tdp1
T1 construct: made in house; host or cells: Escherichia coli
From the text: Recombinant human tyrosyl-DNA-phosphodiesterase 1 (EC number 3.1.4.) was expressed in an Escherichia coli system (plasmid pET 16B-Tdp1 provided by Dr. K. W. Caldecott, Sussex University, UK) and isolated as described in [2, 32]. The reaction of removing Black Hole Quencher 1 (BHQ1) from 3′-end of an oligonucleotide, catalyzed by Tdp1, is used as the test system for determining the inhibitory properties of the test compounds. At the 5′-end of an oligonucleotide there is (5,6)-FAM, a fluorophore whose fluorescence intensity increases after removing the quencher. POLARstar OPTIMA fluorimeter (BMG LABTECH) was used to measure fluorescence.
The reaction mixtures (volume 200 μl) contained the buffer (50 mM Tris-HCl, pH 8.0; 50 mM NaCl; 7 mM mercaptoethanol), 50 nM oligonucleotide and different concentrations of the inhibitor. The reaction was initiated by adding Tdp1 to a final concentration of 1.3 nM. The measurements were performed in linear range of dependence of reaction rate to time (up to 8 minutes) each 55 seconds. The action of the disclosed compounds was assessed by IC50 value (concentration of an inhibitor that reduces an enzyme's activity by half). IC50 value was calculated using MARS Data Analisys 2.0 software (BMG LABTECH).
A typical curve of relation of inhibitor concentration to the rate of reaction, catalyzed by Tdp1, is presented at FIG. 2.

T1 sequence (Q9NUW8 whole entry): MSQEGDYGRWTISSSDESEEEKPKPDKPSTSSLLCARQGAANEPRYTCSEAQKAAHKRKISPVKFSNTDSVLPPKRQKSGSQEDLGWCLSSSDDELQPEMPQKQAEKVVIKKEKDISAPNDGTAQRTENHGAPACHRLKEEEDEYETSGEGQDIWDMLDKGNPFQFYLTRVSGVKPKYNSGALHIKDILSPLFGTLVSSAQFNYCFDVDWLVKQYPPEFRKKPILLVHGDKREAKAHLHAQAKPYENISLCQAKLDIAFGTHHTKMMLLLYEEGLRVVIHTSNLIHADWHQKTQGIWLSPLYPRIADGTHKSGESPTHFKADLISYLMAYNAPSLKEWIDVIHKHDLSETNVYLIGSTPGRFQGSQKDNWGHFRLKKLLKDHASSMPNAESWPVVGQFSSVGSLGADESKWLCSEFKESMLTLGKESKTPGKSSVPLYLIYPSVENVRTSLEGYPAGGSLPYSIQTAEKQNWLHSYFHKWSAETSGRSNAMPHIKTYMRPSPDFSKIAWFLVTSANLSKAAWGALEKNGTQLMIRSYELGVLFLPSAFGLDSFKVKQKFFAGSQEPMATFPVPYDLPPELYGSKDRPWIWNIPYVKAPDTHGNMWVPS

Compound: CC(=O)C1=C(O)C=C2Oc3c(-c4csc(N/N=C/c5ccc(Br)cc5)n4)c(O)c(C)c(O)c3C2(C)C1=O (stereo not drawn) [Compound I, 2-acetyl-6-(2-(2-(4-bromobenzylidene)hydrazinyl)thiazole-4-yl)-3,7,9-trihydroxy-8,9b-dimethyldibenzo[b,d] furan-1(9bh)-one]
- LD50 [1]: > 5000 mg/kg
- maximal tolerated dose (outbred male CD-1 mice): no less than 5000 mg/kg
- IC50 [2]: 0.026 ± 0.011 µM
